Experimental data taken from patent US7485750B2, “Hydroxamic acid derivatives and the preparation method thereof” (Amorepacific Corporation, priority 2005, dated 2009).

How the values were obtained:
[1] = test system: mice; assay: Contraction of skin pores in mice after topical application; assay type: in vivo; details: 0.5 ml of 1% solution in 1,3-butylene glycol:ethanol=7:3 applied for 1 day, back biopsied 24 hours later, control group 65
Procedure: The compounds of Examples 1-24 were dissolved in solvent (1,3-butylene glycol:ethanol=7:3) to give 1% solution of test samples. To forty-six (46) mice, 0.5 ml of the test sample solution was applied for 1 day, 24 hours later, their back part was biopsied. The epidermis was separated, then soaked in 0.5% acetic acid, then fixed in 10% formalin, and cut vertically by […]. After dying with hematoxylin and eosin, the size of skin pore was measured using Mechanical eyepiece micrometer.

[2] = test system: Human fibroblasts; assay: Collagen biosynthesis: procollagen type (I) ELISA in human fibroblasts; assay type: cell-based; details: 10^-4 M in serum-free medium, 24 hours, relative value, control group = 100
Procedure: Human fibroblasts were seeded into 24-well plates at 1×10^5 cells per well and then cultured to 90% of growth. The fibroblastes were then cultured in serum-free DMEM for 24 hours and treated with 10^−4 M of the hydroxamic acid derivatives of Examples 1-24, tocoperol and EGCG, in serum-free medium, and then incubated in a CO2 incubator for 24 hours.
For each supernatant, procollagen production was measured with procollagen type (I) ELISA kit. The results are shown in Table 2, in which collagen biosynthesis was evaluated as a relative value, in consideration that the value of the control group with no material treated is 100.

[3] = test system: Human keratinocyte (HaCaT) cell line; assay: Antioxidative effect: lipid peroxidation assay (MDA, 4-HNE) in t-BHP-treated HaCaT cells; assay type: cell-based; set-up: unit not given here; details: control without treatment = 100
Procedure: This example illustrates the antioxidative effect of the hydroxamic acid derivatives obtained in Examples 1 to 24, in comparison with tocoperol and EGCG (EpiGalloCatechin Gallate). Human keratinocyte (HaCaT) cell line was divided into 1.0×10^6 per 60 mm dish, and was cultured for 1 day at 37° C., 5% CO2, using DMEM (FBS 10%) medium containing penicillin/streptomycin, and then was treated with 10^−4 mol % of hydroxamic acid derivatives. The same treatment was performed with tocoperol and EGCG, as positive controls, of the same concentration. The next day, HaCaT cells were treated with 4 mM of BHP (t-butyl hydroperoixe), and were cultured for 4 hours at 37° C., 5% CO2, and the cells were obtained. Lysis of the cells was performed on the cells by way of repeating the freeze/thawing process. The following experiment was performed according to the method presented in the assay kit.
Cabiochem Lipid peroxidation assay kit (Cat. No. 437634) was used as reagent in the present invention, and lipid peroxidation was measured using the principle that peroxidation products of ester which relate to long chain unsaturated fatty acid, such as malondialdehyde (MDA), and 4-hydroxyalkenal, i.e., 4-hydroxy-2(E)-nonenal (4-HNE), react with the reagent to form a stable compound at 586 nm.

[4] = HaCaT cells pretreated with 10^-4 mol % test material, next day 4 mM t-BHP for 4 hours, lipid peroxidation at 586 nm

Structure (SMILES) | Size of skin pore [1] [µm] | Collagen biosynthesis (%) [2] [%] | MDA, HNE [3, 4] | MDA, HNE ([3]; HaCaT cells treated with 4 mM t-BHP alone for 4 hours)
O=C(O[C@@H]1Cc2c(O)cc(O)cc2O[C@@H]1c1cc(O)c(O)c(O)c1)c1cc(O)c(O)c(O)c1 [EGCG, EpiGalloCatechin Gallate, reference compound] | 60 | 120 | 230 | 
COc1ccc(C(=O)Nc2ccc(C(=O)NO)cc2)cc1OC [Example 1, N-[4-(N-hydroxycarbamoyl)phenyl][3,4-dimethoxyphenyl]carboxyamide] | 56 | 123 | 190 | 
CCOc1ccc(C(=O)Nc2ccc(C(=O)NO)cc2)cc1OCC [Example 2, N-[4-(N-hydroxycarbamoyl)phenyl][3,4-diethoxyphenyl]carboxyamide] | 50 | 131 | 200 | 
CC(C)Oc1ccc(C(=O)Nc2ccc(C(=O)NO)cc2)cc1OC(C)C [Example 3, N-[4-(N-hydroxycarbamoyl)phenyl][3,4-diisopropoxyphenyl]carboxyamide] | 54 | 122 | 211 | 
CCCOc1ccc(C(=O)Nc2ccc(C(=O)NO)cc2)cc1OCCC [Example 4, N-[4-(N-hydroxycarbamoyl)phenyl][3,4-dipropoxyphenyl]carboxyamide] | 52 | 111 | 189 | 
CCCCOc1ccc(C(=O)Nc2ccc(C(=O)NO)cc2)cc1OCCCC [Example 5, N-[4-(N-hydroxycarbamoyl)phenyl][3,4-dibutoxyphenyl]carboxyamide] | 53 | 121 | 211 | 
CC(C)(C)Oc1ccc(C(=O)Nc2ccc(C(=O)NO)cc2)cc1OC(C)(C)C [Example 6, N-[4-(N-hydroxycarbamoyl)phenyl][3,4-di-tert-butoxyphenyl]carboxyamide] | 54 | 135 | 231 | 
COc1ccc(C(=O)Nc2ccc(C(=O)N(C)O)cc2)cc1OC [Example 7, [4-((3,4-dimethoxyphenyl)carbonylamino)phenyl]-N-hydroxy-N-methyl carboxyamide] | 55 | 111 | 220 | 
CCOc1ccc(C(=O)Nc2ccc(C(=O)N(C)O)cc2)cc1OCC [Example 8, [4-((3,4-diethoxyphenyl)carbonylamino)phenyl]-N-hydroxy-N-methyl carboxyamide] | 50 | 112 | 190 | 
CC(C)Oc1ccc(C(=O)Nc2ccc(C(=O)N(C)O)cc2)cc1OC(C)C [Example 9, [4-((3,4-diisopropoxyphenyl)carbonylamino)phenyl]-N-hydroxy-N-methyl carboxyamide] | 51 | 123 | 187 | 
CCCOc1ccc(C(=O)Nc2ccc(C(=O)N(C)O)cc2)cc1OCCC [Example 10, [4-((3,4-dipropoxyphenyl)carbonylamino)phenyl]-N-hydroxy-N-methyl carboxyamide] | 52 | 126 | 140 | 
CCCCOc1ccc(C(=O)Nc2ccc(C(=O)N(C)O)cc2)cc1OCCCC [Example 11, [4-((3,4-dibutoxyphenyl)carbonylamino)phenyl]-N-hydroxy-N-methylcarboxyamide] | 56 | 121 | 198 | 
CN(O)C(=O)c1ccc(NC(=O)c2ccc(OC(C)(C)C)c(OC(C)(C)C)c2)cc1 [Example 12, [4-((3,4-di-tert-butoxyphenyl)carbonylamino)phenyl]-N-hydroxy-N-methyl carboxyamide] | 54 | 123 | 176 | 
COc1ccc(C(=O)Nc2ccc(CC(=O)NO)cc2)cc1OC [Example 13, N-(4-((hydroxycarbamoyl)methyl)phenyl)-3,4-dimethoxy benzamide] | 55 | 111 | 150 | 
CCOc1ccc(C(=O)Nc2ccc(CC(=O)NO)cc2)cc1OCC [Example 14, N-(4-((hydroxycarbamyl)methyl)phenyl)-3,4-diethoxy benzamide] | 50 | 121 | 220 | 
CC(C)Oc1ccc(C(=O)Nc2ccc(CC(=O)NO)cc2)cc1OC(C)C [Example 15, N-(4-((hydroxycarbamoyl)methyl)phenyl)-3,4-diisopropoxy benzamide] | 51 | 134 | 213 | 
CCCOc1ccc(C(=O)Nc2ccc(CC(=O)NO)cc2)cc1OCCC [Example 16, N-(4-((hydroxycarbamoyl)methyl)phenyl)-3,4-dipropoxy benzamide] | 52 | 131 | 199 | 
CCCCOc1ccc(C(=O)Nc2ccc(CC(=O)NO)cc2)cc1OCCCC [Example 17, N-(4-((hydroxycarbamoyl)methyl)phenyl)-3,4-dibutoxy benzamide] | 56 | 123 | 200 | 
CC(C)(C)Oc1ccc(C(=O)Nc2ccc(CC(=O)NO)cc2)cc1OC(C)(C)C [Example 18, N-(4-((hydroxycarbamoyl)methyl)phenyl)-3,4-di-tert-butoxy benzamide] | 57 | 122 | 232 | 
COc1ccc(C(=O)Nc2ccc(CC(=O)N(C)O)cc2)cc1OC [Example 19] | 54 | 142 | 212 | 
CCOc1ccc(C(=O)Nc2ccc(CC(=O)N(C)O)cc2)cc1OCC [Example 20] | 51 | 123 | 196 | 
CC(C)Oc1ccc(C(=O)Nc2ccc(CC(=O)N(C)O)cc2)cc1OC(C)C [Example 21] | 55 | 121 | 190 | 
CCCOc1ccc(C(=O)Nc2ccc(CC(=O)N(C)O)cc2)cc1OCCC [Example 22] | 52 | 122 | 188 | 
CCCCOc1ccc(C(=O)Nc2ccc(CC(=O)N(C)O)cc2)cc1OCCCC [Example 23] | 51 | 123 | 188 | 
CN(O)C(=O)Cc1ccc(NC(=O)c2ccc(OC(C)(C)C)c(OC(C)(C)C)c2)cc1 [Example 24] | 50 | 131 | 197 | 
Cc1c(C)c2c(c(C)c1O)CC[C@@](C)(CCC[C@H](C)CCC[C@H](C)CCCC(C)C)O2 [Tocoperol, tocoperol, reference compound] | 64 | 113 | 250 | 
CC(C)(C)OO [t-BHP, t-butyl hydroperoixe, reference compound] |  |  |  | 320
